Molecular target: T1, human ODC (Homo sapiens, UniProt P11926)
T1 construct: His-tag (N); made in house; host or cells: Escherichia coli JM109
T1 sequence (P11926 1-461): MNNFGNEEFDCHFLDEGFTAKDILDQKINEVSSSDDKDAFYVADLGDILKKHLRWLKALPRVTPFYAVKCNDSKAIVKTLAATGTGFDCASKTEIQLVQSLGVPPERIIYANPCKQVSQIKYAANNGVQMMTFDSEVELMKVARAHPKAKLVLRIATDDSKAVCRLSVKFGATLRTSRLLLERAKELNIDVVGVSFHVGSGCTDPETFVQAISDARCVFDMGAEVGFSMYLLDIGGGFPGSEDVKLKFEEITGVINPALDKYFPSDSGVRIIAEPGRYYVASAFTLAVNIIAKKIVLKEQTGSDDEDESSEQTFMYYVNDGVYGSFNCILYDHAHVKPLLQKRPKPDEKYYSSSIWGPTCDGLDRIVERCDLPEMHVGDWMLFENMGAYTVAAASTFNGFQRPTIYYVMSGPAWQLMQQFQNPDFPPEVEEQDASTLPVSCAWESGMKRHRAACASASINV
Assay: ODC enzyme activity assay and inhibition study (CO2-L3K coupled spectrophotometric assay);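 also: His-tagged human ODC expressed in Escherichia coli, activity followed as decarboxylation coupled via PEP carboxylation and malate formation to NADH analog oxidation, absorbance drop at 405 nm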
Format: biochemical
Conditions: for IC50 relative to that of myricetin: IC50 greater than that of myricetin; for IC50 / IC50 to ornithine decarboxylase (ODC): purified human ODC, 37 °C, 10 mM ornithine, 0.2 mM PLP, n = 3; for IC50: read-out: IC50 to ornithine decarboxylase (ODC); for ODC suppression activity (in words): purified human ODC enzyme activity

Row | SMILES | ODC suppression activity (in words) | IC50 to ornithine decarboxylase (ODC) | other results
1 | O=c1c(O)c(-c2ccc(O)c(O)c2)oc2cc(O)cc(O)c12 [Quercetin] |  |  | IC50 relative to that of myricetin: 10 fold; IC50: 82 µM
2 | COc1ccc(-c2coc3cc(O)cc(O)c3c2=O)cc1 [Biochanin] | did not show any ODC suppression activity | No inhibition | 
3 | O=c1cc(-c2ccccc2)oc2c(O)c(O)ccc12 [7,8-Dihydroxyflavone] |  |  | inhibition pattern with respect to L-ornithine (double reciprocal plots): noncompetitive inhibition pattern; IC50: 2.54 µM; Ki (with respect to substrate L-ornithine, noncompetitive fit, read-out: Ki(ornithine) against ODC): 1.4 ± 0.1 µM
4 | Cn1c(=O)c2c(ncn2C)n(C)c1=O [Caffeine, reference compound] | cannot inhibit ODC activity |  | ODC suppression activity (in words) (listed as caffeine): none of these compounds were able to suppress ODC activity
5 | O=c1cc(-c2ccccc2)oc2cc(O)ccc12 [7-Hydroxyflavone] | did not show any ODC suppression activity | No inhibition | 
6 | O=C1C=Cc2ccccc2C1=O [1,2-Naphthoquinone, reference compound] | cannot inhibit ODC activity |  | ODC suppression activity (in words) (listed as 1,2-naphthoquinone): none of these compounds were able to suppress ODC activity
7 | O=c1c(O)c(-c2ccc(O)cc2O)oc2cc(O)cc(O)c12 [Morin] |  |  | IC50 relative to that of myricetin: 10 fold; IC50: 82 µM
8 | CCOc1cc(C=O)ccc1O [Ethyl vanillin, reference compound] | cannot inhibit ODC activity |  | ODC suppression activity (in words) (listed as ethyl vanillin): none of these compounds were able to suppress ODC activity
9 | C[C@@H]1O[C@@H](OC[C@H]2O[C@@H](Oc3c(-c4ccc(O)c(O)c4)oc4cc(O)cc(O)c4c3=O)[C@H](O)[C@@H](O)[C@@H]2O)[C@H](O)[C@H](O)[C@H]1O [Rutin] | did not display apparent ODC-suppressing activity |  | IC50: > 120 µM
10 | O=c1cc(-c2ccc(O)c(O)c2)oc2cc(O)cc(O)c12 [Luteolin] |  |  | IC50 relative to that of myricetin: 10 fold; IC50: 90 µM
11 | O=c1c(O)c(-c2ccc(O)cc2)oc2cc(O)cc(O)c12 [Kaempferol] | did not show any ODC suppression activity |  | 
12 | O=c1cc(-c2ccc(O)cc2)oc2cc(O)cc(O)c12 [Apigenin] | did not show any ODC suppression activity | No inhibition | 
13 | Oc1ccc2c(c1)OCO2 [Sesamol, reference compound] | cannot inhibit ODC activity |  | ODC suppression activity (in words) (listed as sesamol): none of these compounds were able to suppress ODC activity
14 | O=C1C[C@@H](c2ccccc2)Oc2cc(O)cc(O)c21 [Pinocembrin] | little ODC suppression activity | No inhibition | 
15 | Cn1cnc2c1c(=O)[nH]c(=O)n2C [Theobromine, reference compound] | cannot inhibit ODC activity |  | ODC suppression activity (in words) (listed as theobromine): none of these compounds were able to suppress ODC activity
16 | COc1ccc2c(=O)cc(-c3ccccc3)oc2c1OC [7,8-Dimethoxyflavone] | little ODC suppression activity | No inhibition | 
17 | O=c1c(-c2ccc(O)cc2)coc2cc(O)ccc12 [Daidzein] | did not show any ODC suppression activity | No inhibition | 
18 | O=c1c(O)c(-c2ccccc2)oc2ccccc12 [Flavonol] | little ODC suppression activity | No inhibition | 

Reference: article PMC7765794 (Nutrients, 2020)
